Laboratory results published in patent US11472814B2, “Thienopyranones and furanopyranones as checkpoint inhibitors and modulators of anti-tumor immunity” (SignalRx Pharmaceuticals, Inc., priority 2017, dated 2022).
Entries after “also recorded” stand apart in the source; their conditions may differ.

Legend:
[1] = biological target: T1, PI3K γ (Homo sapiens, UniProt P48736); test: PI3K gamma inhibition IC50 (Thermo Fisher); format: biochemical; conditions: 10-point curve
T1 construct: purchased Thermo Fisher Scientific-Biosciences Life Sciences Solutions, Madison, Wis; (contract assay service)
T1 sequence (P48736 whole entry): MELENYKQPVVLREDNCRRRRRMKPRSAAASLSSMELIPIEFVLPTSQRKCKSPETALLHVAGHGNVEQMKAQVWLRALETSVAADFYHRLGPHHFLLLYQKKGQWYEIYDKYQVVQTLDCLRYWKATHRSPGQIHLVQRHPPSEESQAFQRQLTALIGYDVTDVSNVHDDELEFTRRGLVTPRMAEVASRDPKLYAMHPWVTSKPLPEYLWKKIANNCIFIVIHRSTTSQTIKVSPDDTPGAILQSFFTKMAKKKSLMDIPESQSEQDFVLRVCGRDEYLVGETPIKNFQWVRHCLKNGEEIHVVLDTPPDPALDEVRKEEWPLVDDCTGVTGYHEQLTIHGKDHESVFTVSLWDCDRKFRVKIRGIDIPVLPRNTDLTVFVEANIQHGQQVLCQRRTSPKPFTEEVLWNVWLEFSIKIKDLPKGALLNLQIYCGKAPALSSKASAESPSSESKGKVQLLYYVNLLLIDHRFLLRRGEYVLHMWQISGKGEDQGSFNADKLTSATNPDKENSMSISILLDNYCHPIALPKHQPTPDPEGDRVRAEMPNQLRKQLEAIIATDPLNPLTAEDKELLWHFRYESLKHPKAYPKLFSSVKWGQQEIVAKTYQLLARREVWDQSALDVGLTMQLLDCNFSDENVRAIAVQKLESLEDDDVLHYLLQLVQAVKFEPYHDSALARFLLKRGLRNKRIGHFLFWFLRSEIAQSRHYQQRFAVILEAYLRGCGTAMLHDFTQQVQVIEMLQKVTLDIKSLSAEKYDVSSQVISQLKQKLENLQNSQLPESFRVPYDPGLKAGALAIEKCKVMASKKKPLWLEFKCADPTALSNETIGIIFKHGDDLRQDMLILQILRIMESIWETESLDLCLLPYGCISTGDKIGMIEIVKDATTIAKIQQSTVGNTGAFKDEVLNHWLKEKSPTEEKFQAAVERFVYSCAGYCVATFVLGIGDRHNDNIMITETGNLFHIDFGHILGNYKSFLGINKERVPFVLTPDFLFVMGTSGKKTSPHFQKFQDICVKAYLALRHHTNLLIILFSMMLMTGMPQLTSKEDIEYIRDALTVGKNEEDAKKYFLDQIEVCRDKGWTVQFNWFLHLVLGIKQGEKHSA
Description: The inhibitory activity of a compound of the invention against PI3K and/or BRD4 and/or SYK and/or CDK4/6 can be readily determined using methods known to the skilled artisan, or by commercial vendors offering such services. […] In vivo, PI3K inhibition can be determined from target tissue biopsies by standard tissue processing to disrupt cells and then performing Western Blot analysis to determine the presence or absence of pAKT (substrate of PI3K) relative to a control sample. The activity of a compound of the invention as an inhibitor of a bromodomain-containing protein, such as a BET protein, such as BRD2, BRD3, BRD4, and/or BRDT, or an isoform or mutant thereof, may be determined in vitro, in vivo, or in a cell line. In vitro assays include assays that determine inhibition of bromodomain-containing proteins. Alternatively, inhibitor binding may be determined by running a competition experiment where a provided compound is incubated with a bromodomain-containing protein, such as a BET protein bound to known ligands, labeled or unlabeled. For example, bromodomain inhibition can be determined in vitro using Alpha Screen Technology (http://www.reactionbiologv.com/webapps/site/NewsPDFs/Bromodomain%20Assay %20Platform %20for %20Drug %20Screening %20and %20Discovery.pdf). In vivo bromodomain inhibition can be determined indirectly by evaluating the amount of protein present of proteins whose genes' transcription is influenced or controlled by the bromodomain protein, for example, the MYCN protein transcription is controlled by BRD4 (J. E. Delmore et al., Cell 2011, 146, 904-917; A. Puissant, Cancer Discov. 2013, 3, 308-323). Bromodomain inhibition may also be predicted by in silico modeling as described below in the Examples. Additionally, the company Promega offers a SYK luminescent assay to determine a compound's ability to inhibit the SYK protein (https://www.promega.com/-/media/files/resources/protocols/kinase-enzyme-appnotes/syk-kinase-assay-protocol.pdf?la=en).
Compounds of the invention were characterized for their ability to inhibit target proteins using third party vendors offering such services. PI3K alpha, gamma, and delta inhibition activity was determined by Thermo Fisher Scientific-Biosciences Life Sciences Solutions, Madison, Wis. The bromodomain protein inhibition (binding domain 1 and 2 of BRD4) as well as SYK inhibition was determined at Reaction Biology Corp., Malvern, Pa. […] The IC50 data (shown below in Table 5) was calculated from a 10-point curve and is expressed in nanomolar concentration (nM) rounded off to the nearest whole number. […]

[2] = test system: Bone marrow derived macrophages (BMDMs), M2 gene expression; test: M2 marker mRNA in IL4 stimulated bone marrow derived macrophages (RT PCR); format: cell-based, murine
Description: Bone marrow derived macrophages (MOs) (BMDMs) were exposed to IL4 or LPS for 24 hours to stimulate the M2 or M1 macrophage transition in presence of Compound 1 and the known SYK inhibitor Bay-61-3606 at 1 μM conc. M2 markers Mmr, Ym1, Fizz1 and Mgl mRNA and M1 markers I11, 116 and Tnfa mRNA was quantitated by RT PCR. Values are mean±SEM (n=3-4). Expression of gene of interest is normalized to GAPDH. […] The data provide direct evidence that Compound 1 can block the immunosuppressive macrophage M2 gene expression and activate the M1 gene expression and therefore activate antitumor innate immune cell differentiation in vitro.
Relative mRNA expression of IL4 or LPS polarized genes in murine bone marrow derived macrophages (BMDMs) treated with various concentrations of inhibitors in vitro. Conclusion: Compound 3 suppressed in vitro macrophage specific immunosuppressive M2 gene expression markers and augmented macrophage stimulatory immune response M1 genes respectively.

[3] = test system: T cells in LLC tumors; test: Quantification of CD3+, CD4+ and CD8+ T cells in LLC tumors; format: in vivo, mice
Description: Quantification of CD3+, CD4+ and CD8+ T cells in the LLC tumors treated with Compound 3 (n=3, *p<0.05, t test). Conclusion: Compound 3 decreased CD4+ cells by 50% and increased CD8+ T cells in the tumor compartment by 7% in vivo as compared to vehicle control treated mice.

[4] = test system: T cells in CT26 tumors; test: Flow cytometric quantification of T cells infiltrating CT26 tumors; format: in vivo, mice
Description: Effect of Compound 3 treatment of CT26 tumor bearing mice in vivo 3 mg/kg by intraperitoneal injection QD (IP) for 14 days on number of CD3+/CD8+ T cells infiltrating the tumor tissue. Conclusion: Compound 3 increased CD8+ T cells in the tumor compartment by 800% in vivo. (n=6, p<0.001, t test) as compared to vehicle control treated mice.
Values represent mean±SEM. Conclusion: Compound 3 decreased CD4+ T cells by 5.6-fold and increased CD8+ T cells in the tumor compartment by 6% in vivo as compared to vehicle control treated mice.

[5] = test system: CT26 tumor cells; test: In vitro viability of CT26 tumor cells; format: cell-based; conditions: for % Cell Viability: CT26 tumor cells in vitro
Description: We investigated the effect of Compound 3 on immune cell in vitro and on tumor growth in in vivo in immunocompetent syngeneic tumor models and the effects on the macrophage and T cell immune compartment in vivo by this compound. […] In order to distinguish whether Compound 3 blocks tumor growth due to its effect on immune cell compartment and not on tumor compartment, we tested the effect of this chemotype on CT26 tumor growth in immunodeficient NSG mice vs immunocompetent Balb/c mice. […] Compound 3 has combinatorial immune-oncologic activity in vivo to stimulate anti-cancer innate and adaptive immunity in well-defined accepted immune competent murine models for cancer immunotherapy.
Compound 3 has no effect on the in vitro viability of CT26 tumor cells.

[6] = Table 7, 200 nM, IL4 polarized murine BMDMs, control = 1
[7] = CT26 tumors, flow cytometry, vs vehicle

IC50 [1]: 5 to 50 µM
SMILES: Cc1nn(-c2ccnc(Nc3ccc(-c4csc5c(=O)cc(N6CCOCC6)oc45)cc3)n2)cc1CN1CCC1 [Compound 3, 3-[p-(4-{4-[(1-Azetidinyl)methyl]-3-methyl-1H-pyrazol-1-yl}-2-pyrimidinylamino)phenyl]-5-morpholino-4-oxa-1-thia-7-indenone]
Arg relative mRNA expression (M2 gene) [2, 6]: 0.107 ± 0.01 | Il10 relative mRNA expression (M2 gene) [2, 6]: 0.058 ± 0.01 | Mmr relative mRNA expression (M2 gene) [2, 6]: 0.143 ± 0.03 | Tgfb relative mRNA expression (M2 gene) [2, 6]: 0.458 ± 0.01 | Vegf relative mRNA expression (M2 gene) [2, 6]: 0.294 ± 0.04 | macrophage immunosuppressive M2 gene expression markers ([2]; murine BMDMs, IL4 polarized, various concentrations): suppressed | CD4+ T cells (% of CD3+ T cells) ([3]; LLC tumor): 23 ± 7, % of CD3+ T cells | CD8+ T cells (% of CD3+ T cells) ([3]; LLC tumor): 34 ± 1.1, % of CD3+ T cells | decrease of CD4+ cells ([3]; LLC tumor, vs vehicle): 50% | increase of CD8+ T cells in the tumor compartment ([3]; vs vehicle): 7% | increase of CD8+ T cells in the tumor compartment ([4]; CT26, 3 mg/kg IP QD 14 days, CD3+/CD8+, vs vehicle): 800% | decrease of CD4+ T cells [4, 7]: 5.6 fold | increase of CD8+ T cells in the tumor compartment [4, 7]: 6% | CD3+ T cells (% of live cells) ([4]; CT26 tumors, Compound 3 3 mg/kg IP QD 14 days, vehicle 1.1 ± 0.29): 8 ± 0.46 % of live cells | CD8+ T cells (% of CD3+ T cells) ([4]; CT26 tumors, flow cytometry, mean±SEM, n=3, vehicle 56 ± 3.9): 62 ± 2.0 % of CD3+ T cells | CD4+ T cells (% of CD3+ T cells) ([4]; CT26 tumors, flow cytometry, mean±SEM, n=3, vehicle 56 ± 5.29): 9.5 ± 0.7 % of CD3+ T cells | in vitro viability of CT26 tumor cells [5]: didn't show any effect; also recorded: no effect | % Cell Viability ([5]; Log Inhibitor conc. 1.68867): 96.5 ± 5.3% | % Cell Viability ([5]; Log Inhibitor conc. 1.9897): 96 ± 8.0% | % Cell Viability ([5]; Log Inhibitor conc. 2.29073): 91.6 ± 8.9% | % Cell Viability ([5]; Log Inhibitor conc. 2.59176): 91.3 ± 5.13% | % Cell Viability ([5]; Log Inhibitor conc. 2.89279): 89.8 ± 6.7% | % Cell Viability ([5]; Log Inhibitor conc. 3.19382): 87.3 ± 4.1% | % Cell Viability ([5]; Log Inhibitor conc. 3.49485): 87.1 ± 9.6% | % Cell Viability ([5]; Log Inhibitor conc. 3.79588): 84.3 ± 4.3% | % Cell Viability ([5]; Log Inhibitor conc. 4.09691): 83.9 ± 6.27% | % Cell Viability ([5]; Log Inhibitor conc. 4.39794): 83.6 ± 5.1% | % Cell Viability ([5]; Log Inhibitor conc. 4.69897): 77.4 ± 5.0%
